# Measured values taken from US20220088016A1, “CANCER TREATMENT USING MULTI-TARGETED KINASE INHIBITOR IN COMBINATION OF PROTEIN KINASE BIOMARKERS” (ZHEJIANG CROWNMAB BIOTECH CO. LTD., priority 2019, published 2022).
# Assays:
# FGFR1 (h) = target: T1, FGFR1 (h) (Homo sapiens, UniProt P11362); assay: Kinase IC50 (Eurofins KinaseProfiler); type: biochemical
# T1 construct: purchased Eurofins (KinaseProfiler service)
# Method: (§1) CBT-102 were tested against each of the selected kinases using the Eurofins standard KinaseProfder assays and following the relevant standard operating procedures. The required volume of the 50× stock of test compound (CBT-102) was added to the assay well, before a reaction mix containing the enzyme and substrate was added. The reaction was initiated by the addition of ATP at the selected concentration. There was no pre-incubation of the compound with the enzyme/substrate mix prior to ATP addition.
# (§2) Data are handled using a custom-built in-house analysis software. Results are expressed as kinase activity remaining, as a percentage of the DMSO control. This is calculated using the following formula: […]
# (§3) For IC50 determinations, data are analyzed using XLFit version 5.3 (ID Business Solutions).
# CHK1 (h) = target: T2, CHK1 (h) (Homo sapiens, UniProt O14757); assay: Kinase IC50 (Eurofins KinaseProfiler); type: biochemical
# T2 construct: purchased Eurofins (KinaseProfiler service)
# T2 sequence (O14757 whole entry): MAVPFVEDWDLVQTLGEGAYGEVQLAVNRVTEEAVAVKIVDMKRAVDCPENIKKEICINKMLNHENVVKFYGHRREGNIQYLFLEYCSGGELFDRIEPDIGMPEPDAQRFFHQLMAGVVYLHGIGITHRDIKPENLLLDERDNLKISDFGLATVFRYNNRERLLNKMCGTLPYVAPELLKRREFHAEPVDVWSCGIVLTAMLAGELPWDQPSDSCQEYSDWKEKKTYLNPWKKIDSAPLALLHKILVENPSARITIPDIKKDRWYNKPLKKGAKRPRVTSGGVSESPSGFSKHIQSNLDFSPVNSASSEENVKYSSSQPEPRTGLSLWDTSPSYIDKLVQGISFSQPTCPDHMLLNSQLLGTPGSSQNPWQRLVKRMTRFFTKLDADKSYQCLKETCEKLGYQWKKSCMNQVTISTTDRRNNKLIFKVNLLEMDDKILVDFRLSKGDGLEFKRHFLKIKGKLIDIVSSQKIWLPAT
# Method: as §1, §2, §3
# SAPK4 (h) = target: T3, SAPK4 (h) (Homo sapiens, UniProt O15264); assay: Kinase IC50 (Eurofins KinaseProfiler); type: biochemical
# T3 construct: purchased Eurofins
# T3 sequence (O15264 whole entry): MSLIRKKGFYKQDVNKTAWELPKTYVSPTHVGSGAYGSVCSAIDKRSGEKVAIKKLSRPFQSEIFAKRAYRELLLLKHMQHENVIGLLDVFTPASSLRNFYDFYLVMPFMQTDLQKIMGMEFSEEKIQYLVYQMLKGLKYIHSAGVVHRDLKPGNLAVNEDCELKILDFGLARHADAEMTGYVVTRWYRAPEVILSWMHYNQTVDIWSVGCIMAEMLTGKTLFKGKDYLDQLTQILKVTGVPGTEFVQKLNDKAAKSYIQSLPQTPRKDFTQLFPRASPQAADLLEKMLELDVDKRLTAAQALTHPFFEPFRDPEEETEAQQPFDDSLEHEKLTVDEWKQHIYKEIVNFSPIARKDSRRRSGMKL
# Method: as §1, §2, §3
# FAK (h) = target: T4, FAK (h) (Homo sapiens, UniProt Q05397); assay: Kinase IC50 (Eurofins KinaseProfiler); type: biochemical
# T4 construct: purchased Eurofins (KinaseProfiler service)
# T4 sequence (Q05397 whole entry): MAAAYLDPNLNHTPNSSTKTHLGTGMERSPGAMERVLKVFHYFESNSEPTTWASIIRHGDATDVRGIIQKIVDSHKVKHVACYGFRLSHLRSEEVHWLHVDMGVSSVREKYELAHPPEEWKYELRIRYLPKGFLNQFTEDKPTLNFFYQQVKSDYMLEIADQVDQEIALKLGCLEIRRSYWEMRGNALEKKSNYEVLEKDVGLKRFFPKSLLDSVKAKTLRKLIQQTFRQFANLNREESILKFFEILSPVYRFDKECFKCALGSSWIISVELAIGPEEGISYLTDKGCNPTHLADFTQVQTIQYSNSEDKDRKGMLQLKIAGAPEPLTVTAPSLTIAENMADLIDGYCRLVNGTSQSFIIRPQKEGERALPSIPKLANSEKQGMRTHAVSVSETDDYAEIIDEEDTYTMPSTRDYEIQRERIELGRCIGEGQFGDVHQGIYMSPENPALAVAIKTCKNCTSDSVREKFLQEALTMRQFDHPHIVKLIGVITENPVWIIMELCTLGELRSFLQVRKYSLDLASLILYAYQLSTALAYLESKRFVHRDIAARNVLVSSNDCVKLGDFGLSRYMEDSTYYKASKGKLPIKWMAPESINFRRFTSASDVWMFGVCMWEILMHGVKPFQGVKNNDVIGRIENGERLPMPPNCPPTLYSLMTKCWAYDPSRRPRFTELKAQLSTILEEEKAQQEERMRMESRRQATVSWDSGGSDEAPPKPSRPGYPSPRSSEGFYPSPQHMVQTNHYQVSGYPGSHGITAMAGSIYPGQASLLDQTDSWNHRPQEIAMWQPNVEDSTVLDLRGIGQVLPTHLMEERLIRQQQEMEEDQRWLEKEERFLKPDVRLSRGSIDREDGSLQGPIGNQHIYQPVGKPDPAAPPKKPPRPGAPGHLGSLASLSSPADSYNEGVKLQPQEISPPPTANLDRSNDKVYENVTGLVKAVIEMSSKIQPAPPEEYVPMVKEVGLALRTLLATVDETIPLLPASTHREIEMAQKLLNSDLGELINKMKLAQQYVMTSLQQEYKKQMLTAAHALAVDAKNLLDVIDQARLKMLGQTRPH
# Method: as §1, §2, §3
# SAPK2a (h) = target: T5, SAPK2a (h) (Homo sapiens, UniProt Q16539); assay: Kinase IC50 (Eurofins KinaseProfiler); type: biochemical
# T5 construct: purchased Eurofins
# Method: as §1, §2, §3
# MuSK (h) = target: T6, MuSK (h) (Homo sapiens, UniProt O15146); assay: Kinase IC50 (Eurofins KinaseProfiler); type: biochemical
# T6 construct: purchased Eurofins (KinaseProfiler service)
# Method: as §1, §2, §3
# CDK6/cyclinD3 (h) = target: T7, CDK6/cyclinD3 (h) (Homo sapiens, UniProt Q00534); assay: Kinase IC50 (Eurofins KinaseProfiler); type: biochemical
# T7 construct: purchased Eurofins (KinaseProfiler service)
# T7 sequence (Q00534 whole entry): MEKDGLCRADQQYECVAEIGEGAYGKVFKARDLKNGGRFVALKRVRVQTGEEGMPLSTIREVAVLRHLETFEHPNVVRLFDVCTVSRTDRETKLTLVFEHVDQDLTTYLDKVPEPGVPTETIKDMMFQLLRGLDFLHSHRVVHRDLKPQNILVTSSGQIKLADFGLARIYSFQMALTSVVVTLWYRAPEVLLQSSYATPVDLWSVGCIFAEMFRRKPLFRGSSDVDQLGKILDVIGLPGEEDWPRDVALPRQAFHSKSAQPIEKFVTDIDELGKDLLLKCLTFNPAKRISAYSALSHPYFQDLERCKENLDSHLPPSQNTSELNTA
# T7 sequence (P30281 whole entry partner): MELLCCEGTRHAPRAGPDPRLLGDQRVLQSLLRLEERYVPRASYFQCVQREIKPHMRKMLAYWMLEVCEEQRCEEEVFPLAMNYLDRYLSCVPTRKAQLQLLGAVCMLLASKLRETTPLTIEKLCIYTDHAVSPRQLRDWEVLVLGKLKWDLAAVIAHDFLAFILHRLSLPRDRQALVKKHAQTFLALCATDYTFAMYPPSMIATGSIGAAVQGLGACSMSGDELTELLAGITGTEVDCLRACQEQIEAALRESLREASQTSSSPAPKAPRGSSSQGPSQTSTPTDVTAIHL
# Method: as §1, §2, §3
# Aurora-B (h) = target: T8, Aurora-B (h) (Homo sapiens, UniProt Q96GD4); assay: Kinase IC50 (Eurofins KinaseProfiler); type: biochemical
# T8 construct: purchased Eurofins
# Method: as §1, §2, §3
# PDGFRβ (h) = target: T9, PDGFRβ (h) (Homo sapiens, UniProt P09619); assay: Kinase IC50 (Eurofins KinaseProfiler); type: biochemical
# T9 construct: purchased Eurofins (KinaseProfiler service)
# Method: as §1, §2, §3
# PDGFRα (V561D) (h) = target: T10, PDGFRα (V561D) (h) (Homo sapiens, UniProt P16234, V561D); assay: Kinase IC50 (Eurofins KinaseProfiler); type: biochemical
# T10 construct: purchased Eurofins (KinaseProfiler service)
# Method: as §1, §2, §3
# Wee1 (h) = target: T11, Wee1 (h) (Homo sapiens, UniProt P30291); assay: Kinase IC50 (Eurofins KinaseProfiler); type: biochemical
# T11 construct: purchased Eurofins
# Method: as §1, §2, §3
# MAP4K4 (h) = target: T12, MAP4K4 (h) (Homo sapiens, UniProt O95819); assay: Kinase IC50 (Eurofins KinaseProfiler); type: biochemical
# T12 construct: purchased Eurofins (KinaseProfiler service)
# Method: as §1, §2, §3
# CSK (h) = target: T13, CSK (h) (Homo sapiens, UniProt P41240); assay: Kinase IC50 (Eurofins KinaseProfiler); type: biochemical
# T13 construct: purchased Eurofins (KinaseProfiler service)
# T13 sequence (P41240 whole entry): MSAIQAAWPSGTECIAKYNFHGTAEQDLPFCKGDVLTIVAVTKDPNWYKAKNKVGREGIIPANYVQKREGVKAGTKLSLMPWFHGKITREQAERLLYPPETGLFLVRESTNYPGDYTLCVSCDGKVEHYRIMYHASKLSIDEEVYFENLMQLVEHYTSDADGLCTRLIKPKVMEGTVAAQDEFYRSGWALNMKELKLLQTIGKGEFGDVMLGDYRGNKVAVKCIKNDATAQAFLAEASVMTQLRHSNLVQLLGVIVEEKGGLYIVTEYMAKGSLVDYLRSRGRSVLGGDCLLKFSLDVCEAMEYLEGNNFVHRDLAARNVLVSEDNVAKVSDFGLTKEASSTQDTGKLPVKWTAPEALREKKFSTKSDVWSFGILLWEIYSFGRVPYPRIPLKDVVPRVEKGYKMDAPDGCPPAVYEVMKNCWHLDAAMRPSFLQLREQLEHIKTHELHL
# Method: as §1, §2, §3
# TYK2 (h) = target: T14, TYK2 (h) (Homo sapiens, UniProt P29597); assay: Kinase IC50 (Eurofins KinaseProfiler); type: biochemical
# T14 construct: purchased Eurofins
# Method: as §1, §2, §3
# JAK2 (h) = target: T15, JAK2 (h) (Homo sapiens, UniProt O60674); assay: Kinase IC50 (Eurofins KinaseProfiler); type: biochemical
# T15 construct: purchased Eurofins (KinaseProfiler service)
# Method: as §1, §2, §3
# DDR2 (h) = target: T16, DDR2 (h) (Homo sapiens, UniProt Q16832); assay: Kinase IC50 (Eurofins KinaseProfiler); type: biochemical
# T16 construct: purchased Eurofins (KinaseProfiler service)
# Method: as §1, §2, §3
# EphB3 (h) = target: T17, EphB3 (h) (Homo sapiens, UniProt P54753); assay: Kinase IC50 (Eurofins KinaseProfiler); type: biochemical
# T17 construct: purchased Eurofins (KinaseProfiler service)
# Method: as §1, §2, §3
# p70S6K (h) = target: T18, p70S6K (h) (Homo sapiens, UniProt P23443); assay: Kinase IC50 (Eurofins KinaseProfiler); type: biochemical
# T18 construct: purchased Eurofins (KinaseProfiler service)
# T18 sequence (P23443 whole entry): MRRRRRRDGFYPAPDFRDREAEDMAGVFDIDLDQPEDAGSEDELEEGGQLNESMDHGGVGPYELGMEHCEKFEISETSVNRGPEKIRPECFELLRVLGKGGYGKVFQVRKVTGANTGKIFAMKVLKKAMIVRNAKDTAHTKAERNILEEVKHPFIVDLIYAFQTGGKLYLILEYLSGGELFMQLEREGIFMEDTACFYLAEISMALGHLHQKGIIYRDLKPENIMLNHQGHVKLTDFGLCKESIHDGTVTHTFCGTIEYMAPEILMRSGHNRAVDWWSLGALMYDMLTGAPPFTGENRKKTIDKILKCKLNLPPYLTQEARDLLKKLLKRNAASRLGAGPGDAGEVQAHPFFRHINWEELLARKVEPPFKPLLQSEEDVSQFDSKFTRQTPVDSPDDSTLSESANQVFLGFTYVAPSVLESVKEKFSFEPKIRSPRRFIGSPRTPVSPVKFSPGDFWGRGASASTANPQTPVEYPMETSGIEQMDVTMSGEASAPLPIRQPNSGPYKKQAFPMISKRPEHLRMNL
# Method: as §1, §2, §3
# CDK2/cyclinE (h) = target: T19, CDK2/cyclinE (h) (Homo sapiens, UniProt P24941); assay: Kinase IC50 (Eurofins KinaseProfiler); type: biochemical
# T19 construct: purchased Eurofins (KinaseProfiler service)
# Method: as §1, §2, §3
# Aurora-A (h) = target: T20, Aurora-A (h) (Homo sapiens, UniProt O14965); assay: Kinase IC50 (Eurofins KinaseProfiler); type: biochemical
# T20 construct: purchased Eurofins
# Method: as §1, §2, §3
# Ret (V804M) (h) = target: T21, Ret (V804M) (h) (Homo sapiens, UniProt P07949, V804M); assay: Kinase IC50 (Eurofins KinaseProfiler); type: biochemical
# T21 construct: purchased Eurofins
# Method: as §1, §2, §3
# FGFR3 (h) = target: T22, FGFR3 (h) (Homo sapiens, UniProt P22607); assay: Kinase IC50 (Eurofins KinaseProfiler); type: biochemical
# T22 construct: purchased Eurofins (KinaseProfiler service)
# T22 sequence (P22607 23-806): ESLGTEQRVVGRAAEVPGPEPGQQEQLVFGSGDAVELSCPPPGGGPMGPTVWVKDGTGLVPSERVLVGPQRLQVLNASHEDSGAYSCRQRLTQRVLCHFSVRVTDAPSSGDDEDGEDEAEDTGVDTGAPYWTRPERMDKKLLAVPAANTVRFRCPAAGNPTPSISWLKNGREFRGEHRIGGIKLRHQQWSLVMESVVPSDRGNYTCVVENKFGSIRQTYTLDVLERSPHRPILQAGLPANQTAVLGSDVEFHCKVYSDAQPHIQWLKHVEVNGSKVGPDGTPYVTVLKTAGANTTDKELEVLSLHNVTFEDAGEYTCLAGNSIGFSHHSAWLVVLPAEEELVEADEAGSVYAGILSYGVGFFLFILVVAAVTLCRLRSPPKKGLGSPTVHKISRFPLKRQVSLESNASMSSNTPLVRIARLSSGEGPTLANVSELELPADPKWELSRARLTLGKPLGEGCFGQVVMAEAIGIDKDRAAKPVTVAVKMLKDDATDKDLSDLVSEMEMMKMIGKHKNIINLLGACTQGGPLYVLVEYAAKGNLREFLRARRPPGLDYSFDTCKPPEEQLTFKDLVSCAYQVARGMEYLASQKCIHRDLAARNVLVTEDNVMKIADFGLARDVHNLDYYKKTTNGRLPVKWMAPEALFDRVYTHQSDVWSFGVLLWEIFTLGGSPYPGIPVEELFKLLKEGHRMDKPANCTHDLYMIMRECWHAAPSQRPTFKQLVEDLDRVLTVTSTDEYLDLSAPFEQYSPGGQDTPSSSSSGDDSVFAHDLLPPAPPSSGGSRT
# Method: as §1, §2, §3
# Flt1 (h) = target: T23, Flt1 (h) (Homo sapiens, UniProt P17948); assay: Kinase IC50 (Eurofins KinaseProfiler); type: biochemical
# T23 construct: purchased Eurofins (KinaseProfiler service)
# Method: as §1, §2, §3
# cKit (V560G) (h) = target: T24, cKit (V560G) (h) (Homo sapiens, UniProt P10721, V560G); assay: Kinase IC50 (Eurofins KinaseProfiler); type: biochemical
# T24 construct: purchased Eurofins (KinaseProfiler service)
# Method: as §1, §2, §3
# Syk (h) = target: T25, Syk (h) (Homo sapiens, UniProt P43405); assay: Kinase IC50 (Eurofins KinaseProfiler); type: biochemical
# T25 construct: purchased Eurofins
# Method: as §1, §2, §3
# PKBα (h) = target: T26, PKBα (h) (Homo sapiens, UniProt P31749); assay: Kinase IC50 (Eurofins KinaseProfiler); type: biochemical
# T26 construct: purchased Eurofins
# Method: as §1, §2, §3
# SAPK3 (h) = target: T27, SAPK3 (h) (Homo sapiens, UniProt P53778); assay: Kinase IC50 (Eurofins KinaseProfiler); type: biochemical
# T27 construct: purchased Eurofins
# Method: as §1, §2, §3
# PrKX (h) = target: T28, PrKX (h) (Homo sapiens, UniProt P51817); assay: Kinase IC50 (Eurofins KinaseProfiler); type: biochemical
# T28 construct: purchased Eurofins
# Method: as §1, §2, §3
# Abl (h) = target: T29, Abl (h) (Homo sapiens, UniProt P00519); assay: Kinase IC50 (Eurofins KinaseProfiler); type: biochemical
# T29 construct: purchased Eurofins
# Method: as §1, §2, §3
# EGFR (h) = target: T30, EGFR (h) (Homo sapiens, UniProt P00533); assay: Kinase IC50 (Eurofins KinaseProfiler); type: biochemical
# T30 construct: purchased Eurofins (KinaseProfiler service)
# Method: as §1, §2, §3
# [1] = target: RPS6KA5 (Kin.Dom.2-C-terminal) (Homo sapiens, UniProt O75582); assay: Kinase profiling; type: binding; details: read-out: % Ctrl @ 1000 nM
# DCAMKL1 = DCAMKL1 (Homo sapiens, UniProt O15075); assay: Kinase profiling; type: binding; details: read-out: % Ctrl @ 1000 nM
# DCAMKL1, sequence (O15075 whole entry): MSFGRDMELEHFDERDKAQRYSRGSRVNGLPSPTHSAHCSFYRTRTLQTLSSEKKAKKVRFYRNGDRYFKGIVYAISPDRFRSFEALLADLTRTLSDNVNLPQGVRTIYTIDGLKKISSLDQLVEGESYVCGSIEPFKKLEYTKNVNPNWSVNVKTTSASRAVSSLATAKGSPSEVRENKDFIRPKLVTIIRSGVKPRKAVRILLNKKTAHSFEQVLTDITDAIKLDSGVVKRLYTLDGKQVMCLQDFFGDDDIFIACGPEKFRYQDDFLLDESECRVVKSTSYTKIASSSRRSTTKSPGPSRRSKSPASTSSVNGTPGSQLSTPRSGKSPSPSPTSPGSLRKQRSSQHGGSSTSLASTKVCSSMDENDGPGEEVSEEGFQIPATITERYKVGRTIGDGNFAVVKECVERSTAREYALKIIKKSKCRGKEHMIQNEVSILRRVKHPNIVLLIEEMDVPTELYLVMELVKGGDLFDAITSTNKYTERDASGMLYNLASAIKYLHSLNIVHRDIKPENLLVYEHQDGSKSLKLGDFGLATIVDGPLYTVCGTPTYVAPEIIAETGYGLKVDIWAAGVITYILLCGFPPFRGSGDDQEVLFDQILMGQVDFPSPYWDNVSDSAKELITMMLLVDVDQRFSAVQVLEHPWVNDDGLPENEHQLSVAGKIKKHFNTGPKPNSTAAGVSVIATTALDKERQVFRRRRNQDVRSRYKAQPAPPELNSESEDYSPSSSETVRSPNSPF
# PRKCE = PRKCE (Homo sapiens, UniProt Q02156); assay: Kinase profiling; type: binding; details: read-out: % Ctrl @ 1000 nM
# FER = FER (Homo sapiens, UniProt P16591); assay: Kinase profiling; type: binding; details: read-out: % Ctrl @ 1000 nM
# AURKC = AURKC (Homo sapiens, UniProt Q9UQB9); assay: Kinase profiling; type: binding; details: read-out: % Ctrl @ 1000 nM
smiles,measurement,setting,value
Cc1cc(Oc2cc(NC(=O)C3CC3)ncn2)ccc1NC(=O)Nc1ccc(Cl)c(C(F)(F)F)c1 [CBT-102],IC50,FGFR1 (h),410 nM
same,IC50,CHK1 (h),> 10000 nM
same,IC50,SAPK4 (h),228 nM
same,IC50,FAK (h),> 10000 nM
same,IC50,SAPK2a (h),180 nM
same,IC50,MuSK (h),278 nM
same,IC50,CDK6/cyclinD3 (h),> 10000 nM
same,IC50,Aurora-B (h),525 nM
same,IC50,PDGFRβ (h),1320 nM
same,IC50,PDGFRα (V561D) (h),28 nM
same,IC50,Wee1 (h),> 10000 nM
same,IC50,MAP4K4 (h),763 nM
same,IC50,CSK (h),> 10000 nM
same,IC50,TYK2 (h),> 10000 nM
same,IC50,JAK2 (h),> 10000 nM
same,IC50,DDR2 (h),263 nM
same,IC50,EphB3 (h),> 10000 nM
same,IC50,p70S6K (h),> 10000 nM
same,IC50,CDK2/cyclinE (h),> 10000 nM
same,IC50,Aurora-A (h),1770 nM
same,IC50,Ret (V804M) (h),693 nM
same,IC50,FGFR3 (h),> 10000 nM
same,IC50,Flt1 (h),21 nM
same,IC50,cKit (V560G) (h),38 nM
same,IC50,Syk (h),> 10000 nM
same,IC50,PKBα (h),> 10000 nM
same,IC50,SAPK3 (h),1200 nM
same,IC50,PrKX (h),> 10000 nM
same,IC50,Abl (h),1830 nM
same,IC50,EGFR (h),> 10000 nM
same,remaining activity at 1 µM,[1],100%
same,remaining activity at 1 µM,DCAMKL1,100%
same,remaining activity at 1 µM,PRKCE,99%
same,remaining activity at 1 µM,FER,73%
same,remaining activity at 1 µM,AURKC,33%
